Measured values from patent US6410567B1, “Pesticide containing a photosensitizer and an attractant” (priority 1996, dated 2002).

How the values were obtained:
Assay type in all cases: in vivo
Ceratitis capitata = experiment: Comparative studies on the photoinsecticidal activity of different sensitizing compounds (percent survival after irradiation); conditions: for Percent survival, 0 h after 1 h irradiation / Percent survival, 1 h after 1 h irradiation / Percent survival, 24 h after 1 h irradiation: 6 μmoles/ml photosensitizer for 24 h, 1220 μE s^−1 m^−2 for 1 h; for Percent survival, 0 h after 1 h irradiation: 0 h after irradiation; for Percent survival, 1 h after 1 h irradiation: 1 h after irradiation; for Percent survival, 24 h after 1 h irradiation: 24 h after irradiation; for Percent survival, pre-irradiation: Ceratitis capitata fed 24 h with sucrose solution containing 6 μmoles/ml photosensitizer, before irradiation
Experimental: 31. Comparative Studies on the Photosecticidal Activity of Different Sensitizing Compounds
Target: Ceratitis capitata
Light source: Sunlight-simulating halogen lamp
Light intensity (fluence rate): 1220 μE s^−1 m^−2
Groups of at least 20 flies were fed for 24 h with 3 ml of an aqueous solution containing sucrose (attractive) and 6 μmoles/ml of the photosensitizer. […]

flies [1] = experiment: Effect of the attractant buminal on the intake of HP (extraction, spectrofluorimetric analysis); conditions: HP 8 μmol/ml offered for 6 h, in combination with buminal vs buminal-free food
Experimental: 19. Effect of the Attractant Buminal on the Intake and Action of HP
Groups of 10 flies each were fed for two days with an aqueous solution comprising sucrose and were then fed with compositions which contained the following ingredients:
1. HP (8 μmol/ml)+buminal (1 ml)
3. HP (8 μmol/ml)+1 ml sucrose (1.4 mg/ml)
4. HP (8 μmol/ml)+buminal (0.5 ml)+sucrose (0.5 ml)
The animals were able to take in the compositions indicated above for 6 hours. Thereafter the flies were subjected to an extraction in order to extract the HP taken in, which was quantified by a spectrofluorimetric analysis. From these experiments it is clearly evident that buminal is capable of sharply increasing the intake of HP by the flies, the flies taking in about four times the quantity of photosensitizer when the latter is offered in combination with buminal, in comparison to the buminal-free food. The addition of buminal therefore strengthens the action of HP.

flies [2] = experiment: Mortality investigations: control flies given only HP without irradiation; conditions: flies fed HP in the food, no irradiation
Experimental: An appropriate number of flies (25 for each experiment) was removed from a population and starved for 48 hours. Then, depending on the individual experimental conditions, the flies were provided with food, the control animals being fed with sugar and water while the test group received hematoporphyrin (HP; shown below) which had been added to the food. The animals were then used for the individual experiments; for example, HP was extracted or the flies were irradiated, etc.
3. Mortality Investigations
Control flies and flies fed with HP were irradiated with light sources (HQIT 400W/D OSRAM) whose emitted light is similar to sunlight. The number of survivors was plotted against the irradiation time. The HP concentration, the flux rate and the exposure time (or the total light dose) were investigated as parameters in respect of their effect on the mortality.

Compound: CC1=C(CCC(=O)O)c2cc3[nH]c(cc4nc(cc5[nH]c(cc1n2)c(C)c5C(C)O)C(C)=C4C(C)O)c(C)c3CCC(=O)O (stereo not drawn) [I, hematoporphyrin]
- Percent survival, 0 h after 1 h irradiation (Ceratitis capitata): 60%
- Percent survival, 1 h after 1 h irradiation (Ceratitis capitata): 25%
- Percent survival, 24 h after 1 h irradiation (Ceratitis capitata): 5%
- Percent survival, pre-irradiation (Ceratitis capitata): 100%
- Quantity of photosensitizer taken in with buminal in comparison to the buminal-free food (flies [1]): about four
- Mortality or toxic effect without irradiation (flies [2]): In none of the experiments was mortality or a toxic effect observed

Compound: C[n+]1ccc(-c2c3nc(c(-c4cc[n+](C)cc4)c4ccc([nH]4)c(-c4cc[n+](C)cc4)c4nc(c(-c5ccccc5)c5ccc2[nH]5)C=C4)C=C3)cc1 [II, meso-tri(4N-methyl-pyridyl)-monophenyl-porphine]
- Percent survival, 0 h after 1 h irradiation (Ceratitis capitata): 10%
- Percent survival, 1 h after 1 h irradiation (Ceratitis capitata): 0%
- Percent survival, 24 h after 1 h irradiation (Ceratitis capitata): 0%
- Percent survival, pre-irradiation (Ceratitis capitata): 100%

Compound: O=C1OC2(c3cc(I)c(O)c(I)c3Oc3c2cc(I)c(O)c3I)c2c(Cl)c(Cl)c(Cl)c(Cl)c21 [IV, Rose bengal (tetrachloro, tetraiodo-fluorescein)]
- Percent survival, 0 h after 1 h irradiation (Ceratitis capitata): 85%
- Percent survival, 1 h after 1 h irradiation (Ceratitis capitata): 58%
- Percent survival, 24 h after 1 h irradiation (Ceratitis capitata): 30%
- Percent survival, pre-irradiation (Ceratitis capitata): 100%

Compound: Nc1c(S(=O)(=O)[O-])ccc2c1C(=O)c1ccccc1C2=O.[Na+] [V, 1-amino-anthraquinone-2-sulphonate (sodium salt)]
- Percent survival, 0 h after 1 h irradiation (Ceratitis capitata): 100%
- Percent survival, 1 h after 1 h irradiation (Ceratitis capitata): 77%
- Percent survival, 24 h after 1 h irradiation (Ceratitis capitata): 60%
- Percent survival, pre-irradiation (Ceratitis capitata): 100%

Compound: COc1ccc(NC(N)=S)cc1 [VI, 1-(4-methoxyphenyl)-2-thiourea]
- Percent survival, 0 h after 1 h irradiation (Ceratitis capitata): 100%
- Percent survival, 1 h after 1 h irradiation (Ceratitis capitata): 95%
- Percent survival, 24 h after 1 h irradiation (Ceratitis capitata): 90%
- Percent survival, pre-irradiation (Ceratitis capitata): 100%

Compound: O=C([O-])c1cccc2sc3ccccc3c(=O)c12.[Na+] [VII, thioxanthene-9-one-1-carbonate (sodium salt)]
- Percent survival, 0 h after 1 h irradiation (Ceratitis capitata): 100%
- Percent survival, 1 h after 1 h irradiation (Ceratitis capitata): 100%
- Percent survival, 24 h after 1 h irradiation (Ceratitis capitata): 90%
- Percent survival, pre-irradiation (Ceratitis capitata): 100%

Compound: Al(III)-phtalocyanine tetrasulphonate (sodium salt)
- Percent survival, 0 h after 1 h irradiation (Ceratitis capitata): 100%
- Percent survival, 1 h after 1 h irradiation (Ceratitis capitata): 95%
- Percent survival, 24 h after 1 h irradiation (Ceratitis capitata): 90%
- Percent survival, pre-irradiation (Ceratitis capitata): 100%
